Patent US6890969B2, “Polymer emulsion preservation using cationic compounds” (Air Products Polymers, L.P., priority 2000, dated 2005)
Counter-ions that a name gives are not always drawn. Like-named read-outs stand apart in the source and are kept apart here. Marks after values point to notes of the source that are not given here.

Experiments:
GABL = GABL biochallenge test of preserved polymer emulsions (streak plate / RABIT), inoculations passed; assay type: cell-based, Gluconoacetobacter liquefaciens; details: for Inoculations Passed: PVOH-stabilized VAE emulsion, <1000 ppm vinyl acetate
Procedure: GABL Inoculum Preparation
A recently isolated culture of GABL was grown on potato dextrose agar slants by inoculating the agar surface. The potato dextrose agar slants were incubated for 48-72 hours at 25° C. After this incubation period, GABL cells were harvested using quarter strength Ringers solution to wash the GABL colonies off of the agar surface. The washings from each slant were combined into one sterile, Erlenmeyer flask. The number of slants and the amount of quarter strength Ringers solution used to wash off the GABL colonies was adjusted during the procedure to obtain a final microbial viable count in the range of 10^8-10^10 CFU/mL.
Rapid Automated Bacterial Impedance Technique (RABIT): supplied by Microbiology International, manufactured by Don Whitley Scientific, Ltd.
RABIT utilizes the principal of impedance microbiology to detect and assess microbial activity in a given sample. Using the RABIT, microbial metabolism is monitored by measuring the amount of carbon dioxide produced by actively respiring microorganisms. The electrodes in the RABIT test cells are partially covered with alkaline agar containing potassium hydroxide. As inoculated test samples are monitored on the RABIT, carbon dioxide produced from microbial metabolism is absorbed by the alkaline agar resulting in a change in conductivity. Conductivity is monitored with time and the time to reach a pre-specified rate of reduction in conductivity is termed the time to detection (TTD). Therefore, the shorter the TTD, the higher the number of microorganisms present. Failure can be defined as three successive decreases in conductivity equal to or greater than a pre-specified value (−10 microSiemens is recommended by the manufacturer) at any time during the 72 hour RABIT monitoring period. Alternatively, failure can be defined as a pre-specified total change in conductivity.
Biochallenge Test Procedure
Samples (50 g each) of each test emulsion containing a test antimicrobial agent were inoculated with 1.0 mL of the GABL inoculum. After mixing well, the samples were then placed in a 30° C. incubator. After 1, 2, and 6 days of incubation each sample was streak plated onto potato dextrose agar to assess the level of surviving GABL microorganisms. The potato dextrose agar plates were incubated at 25° C. for 48-72 hours before assessing the growth. On the seventh day of incubation, each test emulsion sample was inoculated again with a freshly prepared GABL inoculum, mixed well, then placed back into the incubator. The samples were again streak plated onto potato dextrose agar after incubating for 1, 2, and 6 days since the second inoculation. On the fourteenth day after the test was initiated, the test emulsions were inoculated a third time with another freshly prepared GABL inoculum and then placed back into the incubator. The samples were again streak plated onto potato dextrose agar after 1, 2, 6, and 13 days of incubation since the third inoculation to assess surviving microorganisms. Test failure is defined as a microbial viable count >300 CFU/10 μL observed from the potato dextrose agar streak plate assessments.
Biochallenge Test Procedure Via the RABIT
A small amount of a microbial nutrient was added to each emulsion test sample (50 g) containing a test antimicrobial agent. The resulting samples were then inoculated with 1.0 mL of the GABL inoculum. After mixing well, an aliquot (5 g) of each test sample was placed into separate RABIT indirect conductivity tubes. The indirect conductivity tubes were then placed into the RABIT incubator modules set at 30° C. and the conductivity changes monitored for up to 72 hours. The remainder of each test sample was stored in a 30° C. incubator during the RABIT monitoring period. At the completion of the RABIT monitoring period, the aliquot samples were placed back into their respective sample containers. Each test sample was then re-inoculated with a freshly prepared GABL inoculum. […]

mixed bacterial pool = assay type: cell-based; details: PVOH-stabilized VAE emulsion Tg 0, <1000 ppm vinyl acetate
Procedure: The preservative efficacy of several cationic compounds in a poly(vinyl alcohol)-stabilized VAE copolymer emulsion (Tg=0) containing less than 1000 ppm vinyl acetate was assessed according to the following procedure:
Aeromonas hydrophilia, Alcaligenes faecalis, Corynebacterium ammoniagenes, Enterobacter aerogenes, Escherichia coli, Klebsiella pneumoniae, Pseudomonas aeruginosa, Proteus vulgaris, Providencia rettgeri, Pseudomonas stutzeri, Shewanella putrefaciens, Serratia liquefaciens, Acinetobacter baumannii, Burkholderia cepacia, Chryseobacterium meningosepticum, Sphingobacterium spiritivorum, Ralstonia pickettii, and GABL.
Mixed Bacterial Pool Inoculum Preparation
Each bacterial culture was individually grown on nutrient agar slants, except GABL was grown on potato dextrose agar slants, by inoculating the agar surfaces. The nutrient agar slants were incubated for 24-48 hours at 30° C. and the potato dextrose agar slants were incubated for 48-72 hours at 25° C. After this incubation period, the cells were harvested using quarter strength Ringers solution to wash the bacterial colonies off the agar surface. The washings from all of the slants were combined into one sterile, Erlenmeyer flask. The number of slants and the amount of Ringers Solution used to wash off the bacterial colonies is adjusted during the procedure to obtain a final mixed microbial viable count in the range of 10^8-10^10 CFU/mL.
Bacterial Biochallenge Test Procedure
The RABIT procedures were followed as described in Example 1, except the mixed bacterial pool inoculum was used to inoculate the test samples instead of the GABL inoculum.

CCCCCCCCCCCCNC(=N)N [DGH, n-dodecylguanidine hydrochloride]
≧7^a: # of GABL Inoculations Passed (GABL; DGH 150 ppm, emulsion VA/E, Tg 14 °C, H2O2/SFS, PVOH, stopped after 7th inoculation) | # of GABL Inoculations Passed (GABL; DGH 200 ppm, emulsion VA/E, Tg 0 °C, H2O2/SFS, PVOH (first such line of Table 2), stopped after 7th inoculation) | # of GABL Inoculations Passed (GABL; DGH 200 ppm, emulsion VA/E, Tg 14 °C, H2O2/SFS, PVOH, stopped after 7th inoculation) | # of GABL Inoculations Passed (GABL; DGH 200 ppm, emulsion VA/E, Tg −15 °C, H2O2/SFS, PVOH, stopped after 7th inoculation)
2: # of GABL Inoculations Passed (GABL; DGH 100 ppm, emulsion VA/E, Tg 0 °C, H2O2/SFS, PVOH (second such line of Table 2)) | # of GABL Inoculations Passed (GABL; DGH 100 ppm, emulsion VA/E, Tg −15 °C, H2O2/SFS, PVOH) | # of GABL Inoculations Passed (GABL; DGH 150 ppm, emulsion VA/E, Tg 0 °C, H2O2/SFS, PVOH/nonionic surfactant) | # of GABL Inoculations Passed (GABL; DGH 200 ppm, emulsion VA/E, Tg 0 °C, H2O2/SFS, PVOH/nonionic surfactant) | # of GABL Inoculations Passed (GABL; DGH 200 ppm, emulsion VA/E, Tg 8 °C, KPS/SFS, PVOH) | Inoculations Passed (GABL; Tg 0 °C, biocide dosage 100 ppm active) | Inoculations Passed (mixed bacterial pool; active biocide dosage 100 ppm)
5: # of GABL Inoculations Passed (GABL; DGH 100 ppm, emulsion VA/E, Tg 14 °C, H2O2/SFS, PVOH) | # of GABL Inoculations Passed (GABL; DGH 150 ppm, emulsion VA/E, Tg −15 °C, H2O2/SFS, PVOH)
4: # of GABL Inoculations Passed (GABL; DGH 150 ppm, emulsion VA/E, Tg 0 °C, H2O2/SFS, PVOH (first such line of Table 2))
0: # of GABL Inoculations Passed (GABL; DGH 100 ppm, emulsion VA/E, Tg 4 °C, KPS/SFS, Nonionic surfactant/HEC) | # of GABL Inoculations Passed (GABL; DGH 100 ppm, emulsion VA/E/MA/SVS, Tg 5 °C, KPS/SFS, Nonionic surfactant) | # of GABL Inoculations Passed (GABL; DGH 150 ppm, emulsion VA/E, Tg 4 °C, KPS/SFS, Nonionic surfactant/HEC) | # of GABL Inoculations Passed (GABL; DGH 150 ppm, emulsion VA/E/MA/SVS, Tg 5 °C, KPS/SFS, Nonionic surfactant) | # of GABL Inoculations Passed (GABL; DGH 200 ppm, emulsion VA/E, Tg 4 °C, KPS/SFS, Nonionic surfactant/HEC) | # of GABL Inoculations Passed (GABL; DGH 200 ppm, emulsion VA/E/AA, Tg 0 °C, H2O2/SFS, PVOH/nonionic surfactant) | # of GABL Inoculations Passed (GABL; DGH 200 ppm, emulsion VA/E/MA/SVS, Tg 5 °C, KPS/SFS, Nonionic surfactant) | # of GABL Inoculations Passed (GABL; DGH 200 ppm, emulsion VA/E/SVS/NMA, Tg 10 °C, TBHP/sodium erythorbate, Anionic sulfate surfactant)
≧4^b: # of GABL Inoculations Passed (GABL; DGH 100 ppm, emulsion VA/E, Tg 20 °C, H2O2/SFS, PVOH, stopped after 4th inoculation) | # of GABL Inoculations Passed (GABL; DGH 150 ppm, emulsion VA/E, Tg 20 °C, H2O2/SFS, PVOH, stopped after 4th inoculation) | # of GABL Inoculations Passed (GABL; DGH 200 ppm, emulsion VA/E, Tg 20 °C, H2O2/SFS, PVOH, stopped after 4th inoculation)
7: # of GABL Inoculations Passed (GABL; DGH 200 ppm, emulsion VA/E, Tg 0 °C, H2O2/SFS, PVOH (second such line of Table 2)) | Inoculations Passed (GABL; Tg 0 °C, biocide dosage 200 ppm active) | Inoculations Passed (mixed bacterial pool; active biocide dosage 200 ppm)
3: # of GABL Inoculations Passed (GABL; DGH 100 ppm, emulsion VA/E, Tg 0 °C, H2O2/SFS, PVOH (first such line of Table 2)) | # of GABL Inoculations Passed (GABL; DGH 150 ppm, emulsion VA/E, Tg −5 °C, H2O2/SFS, PVOH/nonionic surfactant) | # of GABL Inoculations Passed (GABL; DGH 200 ppm, emulsion VA/E, Tg −5 °C, H2O2/SFS, PVOH/nonionic surfactant)
1: # of GABL Inoculations Passed (GABL; DGH 100 ppm, emulsion VA/E, Tg 0 °C, H2O2/SFS, PVOH/nonionic surfactant) | # of GABL Inoculations Passed (GABL; DGH 100 ppm, emulsion VA/E, Tg −5 °C, H2O2/SFS, PVOH/nonionic surfactant) | Inoculations Passed (GABL; Tg 0 °C, biocide dosage 50 ppm active)
